This is an account of results in US8778947B2 (Intermune, Inc., priority 2012, dated 2014).

Entries after “also recorded” stand apart in the source; their conditions may differ. Read-outs that look alike come from different tables or passages of the source.

For data set [1] the following is noted: cited from earlier work.
A short description of data set [2]: Phase 1 open-label crossover study: safety (adverse events). The data set is classed as in vivo, human (healthy subjects). From the text:
The Safety population was defined as subjects who received any amount of pirfenidone or ciprofloxacin.

Data set [3] addresses CYP1A2 (Homo sapiens, UniProt P05177). To be noted: in vitro experiments; cited from earlier work.
Data set [4] in a line: clinical. To be noted: human, in vivo, po; for AUC(0-inf): AUC0-∞.
Method: 750-mg tablets orally, as follows: • Day 2: 750 mg in the evening • Days 3-6: 750 mg twice a day (BID) • Day 7: 750 mg in the morning.
Both noncompartmental methods and a previously derived population PK (i.e., compartmental) model were used to analyze the plasma concentration-time data and characterize individual subject PK parameters.
Data set [5] is described as follows: Ciprofloxacin-pirfenidone in vitro-in vivo extrapolation (IVIVE) simulations of pirfenidone AUC change. The settings on record: from in vitro and in vivo data coupled with IVIVE simulations.
From the text: In brief, the process involves combining in vitro knowledge regarding the properties of a potential inhibitor [IC50 values for various cytochrome P450 (CYP) enzymes] with the in vitro knowledge regarding the pathways of metabolism of a given substrate (fraction metabolized by various CYP enzymes).
The mark [6] stands for this setting: Ratio of Day 6/7 (during ciprofloxacin dosing) to Day 1/2 (pre-ciprofloxacin dosing), N = 27.
[7] abbreviates: plasma, single 801 mg oral pirfenidone with food, Study Day 1/2 (Pre-Ciprofloxacin), N = 27.
[8] abbreviates: plasma, single 801 mg oral pirfenidone with food, Study Day 6/7 (During Ciprofloxacin 750 mg BID), N = 27.

Chain of CYP1A2 (P05177 whole entry): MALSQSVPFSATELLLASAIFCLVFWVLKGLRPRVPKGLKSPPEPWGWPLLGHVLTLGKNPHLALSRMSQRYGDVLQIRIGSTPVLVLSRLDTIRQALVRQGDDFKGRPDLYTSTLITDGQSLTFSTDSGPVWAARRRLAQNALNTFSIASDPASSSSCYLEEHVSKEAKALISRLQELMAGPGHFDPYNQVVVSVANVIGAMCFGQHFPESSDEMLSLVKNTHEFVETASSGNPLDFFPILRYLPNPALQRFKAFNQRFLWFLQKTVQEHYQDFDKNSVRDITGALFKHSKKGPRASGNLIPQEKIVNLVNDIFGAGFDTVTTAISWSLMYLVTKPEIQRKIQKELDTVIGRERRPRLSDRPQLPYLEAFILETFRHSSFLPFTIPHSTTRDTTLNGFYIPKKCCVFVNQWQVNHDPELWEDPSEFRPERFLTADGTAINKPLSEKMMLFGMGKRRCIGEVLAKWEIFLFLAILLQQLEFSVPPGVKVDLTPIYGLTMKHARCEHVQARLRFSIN

With `O=C(O)c1ccc(=O)n(-c2ccccc2)c1` [5-Carboxy-Pirfenidone, 5-carboxy-pirfenidone], under setting [6], the “AUC0-∞ Geometric Mean Ratio (90% Confidence Interval)” value is recorded as 0.96 (0.92, 1.00) and the “Cmax Geometric Mean Ratio (90% Confidence Interval)” value is given as 0.62 (0.57, 0.66). Further, where the note is “after 801 mg pirfenidone”, the “AUC0-∞ Day 6/7 geometric mean lower than on Day 1/2” value was found to be 7.7% and the “Cmax lower with ciprofloxacin coadministration on Day 6/7 than Day 1/2” value stood at 40%. In addition, under setting [7], the “AUC0-∞, Geometric Mean” value is 32.6 µg·h/mL; the “AUC0-∞, Mean (SD)” value is reported as 30.9 (4.74) μg*hr/mL; the “AUC0-∞, Median” value worked out at 30.3 µg·h/mL; the “Cmax, Geometric Mean” value is 6.5 µg/mL. For the same molecule, under setting [7], the “Cmax, Mean (SD)” value is on record as 6.1 (1.44) μg/mL; the “Cmax, Median” value was 5.7 µg/mL; the “T1/2 (apparent terminal elimination half-life), Geometric Mean” value is on record as 2.6 h; the “T1/2, Mean (SD)” value was 2.7 (0.73) h. Under setting [7], the “Tmax, Geometric Mean” value stood at 2.2 h; the “Tmax, Mean (SD)” value is recorded as 2.3 (0.6) h; the “Tmax, Median” value came to 2 h. Under setting [8], the “AUC0-∞, Geometric Mean” value stood at 30.1 µg·h/mL; the “AUC0-∞, Mean (SD)” value was 29.6 (4.52) μg*hr/mL; the “AUC0-∞, Median” value turned out to be 29.1 µg·h/mL; the “Cmax, Geometric Mean” value was determined as 3.8 µg/mL. For the same molecule, under setting [8], the “Cmax, Mean (SD)” value is 3.8 (0.8) μg/mL; the “Cmax, Median” value was found to be 3.8 µg/mL; the “T1/2 (apparent terminal elimination half-life), Geometric Mean” value was 4 h; the “T1/2, Mean (SD)” value is given as 4.2 (0.93) h. Under setting [8], the “T1/2, Median” value is on record as 4 h; the “Tmax, Geometric Mean” value amounted to 2.1 h; the “Tmax, Mean (SD)” value was 2 (0.76) h; the “Tmax, Median” value was found to be 2 h. Further, the “T1/2 (apparent terminal elimination half-life), Geometric Mean” value (plasma, single 801 mg oral pirfenidone with food, Study Day 6/7 (During Ciprofloxacin 750 mg BID), N = 27, listed as 5-carboxy-pirfenidone) was 4.0 h.

In the case of `O=C(O)c1cn(C2CC2)c2cc(N3CCNCC3)c(F)cc2c1=O` [Ciprofloxacin, 1-cyclopropyl-6-fluoro-1,4-dihydro-4-oxo-7-(1-piperazinyl)-3-quinolinecarboxylic acid], the results for the “[I]in, u (free-drug concentration of the inhibitor entering the liver)” value in data set [1] (Ciprofloxacin 250 mg BID), in data set [1] (Ciprofloxacin 500 mg BID) and in data set [1] (ciprofloxacin 750 mg BID) were 52, 52 and 78, respectively.

For the molecule `Cc1ccc(=O)n(-c2ccccc2)c1` [Pirfenidone, 5-methyl-1-phenyl-2-(1H)-pyridone], the “subjects whose strongest AE relationship was probably related to pirfenidone” value in data set [2] (as assessed by the investigator) is 6 subjects. Moreover, the “subjects with pirfenidone-related AEs only on Day 6” value in data set [2] (coadministration with ciprofloxacin) turned out to be 5 subjects. Moreover, the “subjects with AEs considered related to pirfenidone on Day 1” value in data set [2] (dosing with pirfenidone only) is “One”. Also, the “T1/2, Min, Max” value is given as 2.8, 5.6 (human, in vivo, po) and 1.4, 3.6 (human, in vivo, po, 801 mg). Besides, the “Tmax, Min, Max” value is, setting by setting: (human, in vivo, po) 1, 4.1; (human, in vivo, po, 801 mg) 1, 3. For the same molecule, for the setting “human, in vivo, po, 801 mg”, the “AUC0-∞, Min, Max” value is on record as 30, 88.2. Moreover, the “Cmax, Min, Max” value (human, in vivo, po, 801 mg) is recorded as 6.6, 14.4. In data set [3], the “CYP isoform metabolizing pirfenidone in vitro” value is “primarily metabolized by CYP1A2; also recorded: predominantly carried out by CYP1A2”. For the same molecule, the AUC(0-inf) (commonly the area under the concentration-time curve extrapolated to infinity) came out at 50.8 µg·h/mL in data set [4] (801 mg, Geometric Mean); 51.9 µg·h/mL in data set [4] (801 mg, Mean (SD)); 53.2 µg·h/mL in data set [4] (801 mg, Median). Moreover, the Cmax (as a rule, the maximum level reached in the sampled fluid or tissue) in data set [4] (801 mg, Geometric Mean) came out at 10.7 µg/mL; in data set [4] (801 mg, Mean (SD)), 10.4 µg/mL; in data set [4] (801 mg, Median) it was 10.4 µg/mL. Besides, the half-life (usually the time needed for the level to fall by half in the phase considered) is 2.4 h in data set [4] (801 mg, T1/2 (apparent terminal elimination half-life), Geometric Mean); 2.5 h in data set [4] (801 mg, T1/2, Mean (SD)); 4.1 h in data set [4] (T1/2 (apparent terminal elimination half-life), Geometric Mean); 4 h in data set [4] (T1/2, Mean (SD)); 4 h in data set [4] (T1/2, Median). The Tmax (usually the time from dosing to the highest level) in data set [4] (801 mg, Geometric Mean) was found to be 2.2 h; in data set [4] (801 mg, Mean (SD)), 2.2 h; in data set [4] (801 mg, Median), 2 h; in data set [4] (Geometric Mean), 2.3 h; in data set [4] (Mean (SD)), 2.6 h; in data set [4] (Median) it was 2 h. The “share of in vivo metabolism of pirfenidone for which CYP1A2 is responsible” value in data set [5] is given as 70-80%.
